Data from US5616606A, “Oligopeptide antiretroviral agents” (priority 1995, dated 1997).
Several values for one entry are separate records, joined by “and”; a condition that tells them apart may be missing. Equal values may be shown once.

Experiments:
[1] = test system: Moloney murine leukemia virus (MLV); assay: anti-Moloney murine leukemia virus (MLV) plaque test; format: cell-based; settings: anti-MLV plaque count
[2] = test system: SC-1 cells; assay: toxicity TD50 reported with the anti-MLV test; settings: Table IV
[3] = test system: poly(dA-dT); assay: ethidium displacement assay, poly(dA-dT); settings: relative to ethidium 9.5 × 10^6 M^-1, average of repeat measurements
[4] = test system: calf thymus DNA; assay: ethidium displacement assay, drug-DNA binding constant, calf thymus DNA; settings: relative to ethidium 10^7 M^-1, average of repeat measurements
[5] = test system: HBV; assay: inhibition of HBV DNA replication in 2.2.15 cell cultures; format: cell-based; settings: for INT[…] DNA MONO.: 24 hours following the 9th day of treatment
[6] = solubility in DMSO, MeOH, H2O; format: physicochemical
[7] = test system: HIV-1
[8] = test system: 2.2.15 cells; assay: toxicity analysis, neutral red dye uptake in 2.2.15 cells; settings: triplicate, ± standard deviation
[9] = 10 μM, single well, dihydrochloride
[10] = 50 μM, single well, dihydrochloride

Structure (SMILES) | Activity, MIC50 [1] | Toxicity, TD50 [2] | Kapp [3] | DNA Binding Constant [4] | INT[…] DNA MONO. [5, 9] | HBV VIRION DNA DAY 0 [5, 9] | HBV VIRION DNA DAY 9 [5, 9] | INT[…] DNA MONO. [5, 10] | HBV VIRION DNA DAY 0 [5, 10] | HBV VIRION DNA DAY 6 ([5]; 50 μM, day 6, single well, dihydrochloride) | HBV VIRION DNA DAY 9 ([5]; 50 μM, single well, zero = undetectable, cutoff 0.1 pg/ml, dihydrochloride) | effect on HBV replication (in words) ([5]; tested at 50 and 10 μM, compared with 2',3'-ddC) | Solubility in DMSO ([6]; DMSO) | Solubility in H2O ([6]; H2O) | EC50 ([7]; Table XI) | Anti-HIV-1 Activity (National Cancer Institute Designation) ([7]; inactive, moderate or active) | NEUTRAL RED DYE UPTAKE ([8]; 10 μg/ml) | NEUTRAL RED DYE UPTAKE ([8]; 30 μg/ml) | NEUTRAL RED DYE UPTAKE ([8]; 100 μg/ml) | NEUTRAL RED DYE UPTAKE ([8]; 300 μg/ml)
Cc1cn([C@H]2C[C@H](N=[N+]=[N-])[C@@H](CO)O2)c(=O)[nH]c1=O [AZT] | 1.4 ng/mL | > 100.00 ug/mL^-1 |  |  |  |  |  |  |  |  |  |  |  |  |  |  |  |  |  | 
Cn1cc(NC(=O)c2cc(NC(=O)CNC(=N)N)cn2C)cc1C(=O)NCCC(=N)N [Compound 1, reference compound] |  |  | 9.4e+07 M⁻¹ | 1.9e+07 M⁻¹ |  |  |  |  |  |  |  |  |  |  |  |  |  |  |  | 
Cl.Cl.Cn1cc(NC(=O)c2cc(NC(=O)Nc3cc(C(=O)Nc4cc(C(=O)NCCC(=N)N)n(C)c4)n(C)c3)cn2C)cc1C(=O)NCCC(=N)N [Compound 3, N,N'-Di(1-methyl-2-[1-methyl-2-carboxamido(3-propionamidine)-4-pyrrole]-4-pyrrolyl)urea dihydrochloride] |  |  |  | 5.6e+07 M⁻¹ | 2.8 pg/μg CELL DNA and 2.2 pg/μg CELL DNA and 2.6 pg/μg CELL DNA and 2.5 pg/μg CELL DNA | 57 pg/ml CULTURE MEDIUM and 64 pg/ml CULTURE MEDIUM and 74 pg/ml CULTURE MEDIUM and 60 pg/ml CULTURE MEDIUM | 69 pg/ml CULTURE MEDIUM and 74 pg/ml CULTURE MEDIUM and 94 pg/ml CULTURE MEDIUM and 92 pg/ml CULTURE MEDIUM | 2.9 pg/μg CELL DNA and 2.2 pg/μg CELL DNA and 2.4 pg/μg CELL DNA | 58 pg/ml CULTURE MEDIUM and 68 pg/ml CULTURE MEDIUM and 81 pg/ml CULTURE MEDIUM | 67 pg/ml CULTURE MEDIUM and 44 pg/ml CULTURE MEDIUM and 78 pg/ml CULTURE MEDIUM and 76 pg/ml CULTURE MEDIUM | 16 pg/ml CULTURE MEDIUM and 13 pg/ml CULTURE MEDIUM and 19 pg/ml CULTURE MEDIUM and 10 pg/ml CULTURE MEDIUM | weak inhibitor | good | good | 11.9 µM | Moderate | 99 ± 1 % OF CONTROL | 99 ± 1 % OF CONTROL | 99 ± 2 % OF CONTROL | 82 ± 2 % OF CONTROL
